Measured values reported in US12393007B2, “Method for adapting optical properties of an immersion mixture, and immersion mixtures and components thereof” (Carl Zeiss Microscopy GmbH, priority 2018, dated 2025).
Where a name gives a salt, the structure may show the parent alone.

Assay: not given
Settings: source Merck; cited from earlier work

Compound | solubility in water (20° C.)
O.O.[Na+].[Na+].[O]=[Mo](=[O])([O-])[O-] [sodium molybdate dihydrate] | 840 mg/mL
O.O.[Na+].[Na+].[O]=[W](=[O])([O-])[O-] [sodium tungstate dihydrate] | 730 mg/mL

Assay: Refractive index ne at 23° C., reference wavelength 546.1 nm
Type: physicochemical
Settings: not given

Compound | ne (refractive index) of the substance | ne (refractive index) of aqueous solution 200 g/L
OCC(F)(OC(F)(F)C(F)(OC(F)(F)C(F)(F)C(F)(F)F)C(F)(F)F)C(F)(F)F (centres unmarked) [Cheminox PO-3-OH, 2,3,3,3-tetrafluoro-2-[1,1,2,3,3,3-hexafluoro-2-(heptafluoropropoxy)propoxy]-1-propanol] | 1.2944 | 
O.O.O.O.O.O.O.O=S(=O)([O-])[O-].[Mg+2] [magnesium sulfate heptahydrate] |  | 1.3529
O=C([O-])c1ccccc1O.[Na+] [sodium salicylate] |  | 1.3747
N#C[S-].[Na+] [sodium thiocyanate] |  | 1.3765
O.O.[Na+].[Na+].[O]=[W](=[O])([O-])[O-] [sodium tungstate dihydrate] |  | 1.3531
ammonium sulfate |  | 1.3629
dimethyl propylene urea | 1.4909 | 
tetrahydrofurfuryl alcohol polyethylene glycol ether | 1.4621 | 

Same assay, conditions: pure substance; 23° C.; 546.1 nm

ne (refractive index) of the substance | Compound
1.4518 | CCCC(O)C(CC)CO (centres unmarked) [2-ethylhexane-1,3-diol]
1.4511 | CCCCC(CC)COC(=O)CCCCCCCCC(=O)OCC(CC)CCCC (centres unmarked) [bis (2-ethylhexyl) sebacate]
1.4244 | CC(=O)CC(C)(C)O [diacetone alcohol, 4-hydroxy-4-methyl-2-pentanone]
1.4419 | CCOC(=O)/C=C/C(=O)OCC [diethyl fumarate]
1.4414 | CCOC(=O)/C=C\C(=O)OCC [diethyl maleate]
1.4200 | CCOC(=O)CCC(=O)OCC [diethyl succinate]
1.4126 | CCOCCOCCOCC [diethylene glycol diethyl ether]
1.4289 | COC(=O)CCCCC(=O)OC [dimethyl adipate]
1.4435 | COC(=O)/C=C\C(=O)OC [dimethyl maleate]
1.4161 | CC(=O)OCCOC(C)=O [ethylene glycol diacetate]
1.4431 | CCOC(=O)CC(O)(CC(=O)OCC)C(=O)OCC [triethyl citrate]
1.4449 | CCCCC(CC)C(=O)OCCOCCOCCOC(=O)C(CC)CCCC (centres unmarked) [triethylene glycol bis(2-ethylhexanoate)]
1.3220 | bis(hydroxymethyl)perfluoropolyether [Cheminox OXF-3PO-OH]
